Converted amounts (≈) assume the structure as drawn. Values belong to the compound of their own block, whether it stands above or below them.
What was measured:
[1] = target: T1, Endoplasmin (Canis lupus familiaris, UniProt P41148); test: Inhibition of GST-tagged dog GRP94 (69 to 337 residues) expressed in Escherichia coli BL21 (DE3) measured after 4 hrs by fluorescent polarization assay
[2] = target: T2, Heat shock protein HSP 90-alpha (Homo sapiens, UniProt P07900); test: Binding affinity to Hsp90alpha (unknown origin) by fluorescent polarization assay
[3] = target: Endoplasmin (Canis lupus familiaris) (UniProt P41148); settings: dose 0.37-10 µM
Sequence of Endoplasmin (Canis lupus familiaris) (P41148 whole entry): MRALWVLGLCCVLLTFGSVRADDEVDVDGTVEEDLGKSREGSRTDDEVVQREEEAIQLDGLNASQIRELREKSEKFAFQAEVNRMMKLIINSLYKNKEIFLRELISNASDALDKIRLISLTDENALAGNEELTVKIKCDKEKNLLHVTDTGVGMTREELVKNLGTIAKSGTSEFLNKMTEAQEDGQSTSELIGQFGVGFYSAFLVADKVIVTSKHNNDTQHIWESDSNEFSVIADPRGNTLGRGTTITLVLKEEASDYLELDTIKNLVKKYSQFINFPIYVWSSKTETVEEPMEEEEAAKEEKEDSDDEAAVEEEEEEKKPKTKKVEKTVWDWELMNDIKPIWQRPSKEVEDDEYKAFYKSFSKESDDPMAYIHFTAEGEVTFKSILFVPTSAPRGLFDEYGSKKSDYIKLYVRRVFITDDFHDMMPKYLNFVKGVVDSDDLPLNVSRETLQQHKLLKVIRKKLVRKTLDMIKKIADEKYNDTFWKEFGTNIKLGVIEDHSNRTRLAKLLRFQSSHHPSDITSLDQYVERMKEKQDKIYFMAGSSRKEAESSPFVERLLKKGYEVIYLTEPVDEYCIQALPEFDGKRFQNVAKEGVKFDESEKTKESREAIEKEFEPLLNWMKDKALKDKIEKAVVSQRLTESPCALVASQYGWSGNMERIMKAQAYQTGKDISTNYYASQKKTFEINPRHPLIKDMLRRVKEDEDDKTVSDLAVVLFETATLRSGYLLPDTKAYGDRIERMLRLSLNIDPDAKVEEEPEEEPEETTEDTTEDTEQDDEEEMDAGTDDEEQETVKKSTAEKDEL
Description: Binding affinity to GST-tagged dog GRP94 (69 to 337 residues) expressed in Escherichia coli BL21 (DE3) assessed as association constant at 0.37 to 10 uM measured by BLI assay

[4] = target: T2, Heat shock protein HSP 90-alpha; settings: dose 1.1-30 µM
Description: Binding affinity to His-tagged human N-terminal HSP90alpha (1 to 236 residues) expressed in Escherichia coli BL21 (DE3) assessed as association constant at 1.1 to 30 uM measured by BLI assay

[5] = Permeability of compound at pH 7.4; type: ADME; settings: not told, read-out: permeability
[6] = Metabolic stability in mouse microsomes assessed as half life in presence of NADPH at 10 uM measured after 120 mins by LC-MS/MS analysis; type: ADME, Microsome
[7] = Lipophilicity, logD of compound at pH 7.4; type: physicochemical; settings: buffer
[8] = Aqueous solubility of compound; type: physicochemical; settings: buffer
[9] = Oral bioavailability in Sprague-Dawley rat at 40 mg/kg measured after 24 hrs by LC-MS/MS analysis; type: ADME, organism-based; settings: in vivo
[10] = tested on: Mus musculus; test: Anti-ulcerative colitis activity against DSS-induced Ulcerative colitis C57BL/6 mouse model assessed as disease activity index at 10 mg/kg, ip measured for 8 days (reference value: 8.37+/-0.3); type: functional; settings: time 8 day
[11] = tested on: Mus musculus; test: Anti-ulcerative colitis activity against DSS-induced Ulcerative colitis C57BL/6 mouse model assessed as disease activity index at 50 mg/kg, ip measured for 8 days (reference value: 8.37+/-0.3); type: functional; settings: time 8 day
[12] = Metabolic stability in human microsomes assessed as clearance in presence of NADPH at 10 uM measured after 120 mins by LC-MS/MS analysis; type: ADME, Microsome; settings: 2 h
[13] = Apparent volume of distribution in Sprague-Dawley rat at 10 mg/kg, iv measured after 24 hrs by LC-MS/MS analysis; type: ADME, organism-based; settings: in vivo
[14] = Clearance in Sprague-Dawley rat at 10 mg/kg, iv measured after 24 hrs by LC-MS/MS analysis; type: ADME, organism-based; settings: in vivo
[15] = target: T2, Heat shock protein HSP 90-alpha; test: Binding affinity to His-tagged human N-terminal HSP90alpha (1 to 236 residues) expressed in Escherichia coli BL21 (DE3) assessed as dissociation rate constant at 1.1 to 30 uM measured by BLI assay
[16] = target: T1, Endoplasmin; test: Binding affinity to GST-tagged dog GRP94 (69 to 337 residues) expressed in Escherichia coli BL21 (DE3) assessed as dissociation rate constant at 0.37 to 10 uM measured by BLI assay
[17] = tested on: Mus musculus; test: Toxicity in DSS-induced Ulcerative colitis C57BL/6 mouse model assessed as effect on liver weight index at 10 to 50 mg/kg, ip measured after 8 days; settings: in vivo, 192 h
[18] = Cmax in Sprague-Dawley rat at 40 mg/kg, po measured after 24 hrs by LC-MS/MS analysis; type: ADME, organism-based; parameters: time 24 hrs, dose 40 mg/kg, route po; settings: in vivo
[19] = Half life in Sprague-Dawley rat at 10 mg/kg, iv measured after 24 hrs by LC-MS/MS analysis; type: ADME, organism-based; settings: in vivo
[20] = Metabolic stability in human microsomes assessed as half life in presence of NADPH at 10 uM measured after 120 mins by LC-MS/MS analysis; type: ADME, Microsome
[21] = Apparent volume of distribution in Sprague-Dawley rat at 40 mg/kg, po measured after 24 hrs by LC-MS/MS analysis; type: ADME, organism-based; settings: in vivo
[22] = AUC (0 to infinity) in Sprague-Dawley rat at 10 mg/kg, iv measured after 24 hrs by LC-MS/MS analysis; type: ADME, organism-based; parameters: dose 10 mg/kg, time 24 hrs, route iv; settings: in vivo
[23] = Clearance in Sprague-Dawley rat at 40 mg/kg, po measured after 24 hrs by LC-MS/MS analysis; type: ADME, organism-based; settings: in vivo
[24] = AUC (0 to infinity) in Sprague-Dawley rat at 40 mg/kg, po measured after 24 hrs by LC-MS/MS analysis; type: ADME, organism-based; parameters: dose 40 mg/kg, time 24 hrs, route po; settings: in vivo
[25] = Cmax in Sprague-Dawley rat at 10 mg/kg, iv measured after 24 hrs by LC-MS/MS analysis; type: ADME, organism-based; parameters: dose 10 mg/kg, time 24 hrs, route iv; settings: in vivo
[26] = Metabolic stability in mouse microsomes assessed as clearance in presence of NADPH at 10 uM measured after 120 mins by LC-MS/MS analysis; type: ADME, Microsome; settings: 2 h
[27] = Tmax in Sprague-Dawley rat at 40 mg/kg, po measured after 24 hrs by LC-MS/MS analysis; type: ADME, organism-based; settings: in vivo
[28] = Half life in Sprague-Dawley rat at 40 mg/kg, po measured after 24 hrs by LC-MS/MS analysis; type: ADME, organism-based; settings: in vivo
[29] = Tmax in Sprague-Dawley rat at 10 mg/kg, iv measured after 24 hrs by LC-MS/MS analysis; type: ADME, organism-based; settings: in vivo
[30] = tested on: Mus musculus; test: Anti-ulcerative colitis activity against DSS-induced Ulcerative colitis C57BL/6 mouse model assessed as disease activity index at 30 mg/kg, ip measured for 8 days (reference value: 8.37+/-0.3); type: functional; settings: time 8 day
[31] = tested on: Mus musculus; test: Toxicity in DSS-induced Ulcerative colitis C57BL/6 mouse model assessed as loss of body weight at 10 to 50 mg/kg, ip measured for 9 days; type: organism-based; settings: in vivo, 216 h, dose 10-50 mg/kg, time 9 day
[32] = target: Endoplasmin (Homo sapiens, UniProt P14625); test: Binding affinity to Grp94 (unknown origin) by fluorescent polarization assay
Sequence of Endoplasmin (Homo sapiens, UniProt P14625) (P14625 whole entry): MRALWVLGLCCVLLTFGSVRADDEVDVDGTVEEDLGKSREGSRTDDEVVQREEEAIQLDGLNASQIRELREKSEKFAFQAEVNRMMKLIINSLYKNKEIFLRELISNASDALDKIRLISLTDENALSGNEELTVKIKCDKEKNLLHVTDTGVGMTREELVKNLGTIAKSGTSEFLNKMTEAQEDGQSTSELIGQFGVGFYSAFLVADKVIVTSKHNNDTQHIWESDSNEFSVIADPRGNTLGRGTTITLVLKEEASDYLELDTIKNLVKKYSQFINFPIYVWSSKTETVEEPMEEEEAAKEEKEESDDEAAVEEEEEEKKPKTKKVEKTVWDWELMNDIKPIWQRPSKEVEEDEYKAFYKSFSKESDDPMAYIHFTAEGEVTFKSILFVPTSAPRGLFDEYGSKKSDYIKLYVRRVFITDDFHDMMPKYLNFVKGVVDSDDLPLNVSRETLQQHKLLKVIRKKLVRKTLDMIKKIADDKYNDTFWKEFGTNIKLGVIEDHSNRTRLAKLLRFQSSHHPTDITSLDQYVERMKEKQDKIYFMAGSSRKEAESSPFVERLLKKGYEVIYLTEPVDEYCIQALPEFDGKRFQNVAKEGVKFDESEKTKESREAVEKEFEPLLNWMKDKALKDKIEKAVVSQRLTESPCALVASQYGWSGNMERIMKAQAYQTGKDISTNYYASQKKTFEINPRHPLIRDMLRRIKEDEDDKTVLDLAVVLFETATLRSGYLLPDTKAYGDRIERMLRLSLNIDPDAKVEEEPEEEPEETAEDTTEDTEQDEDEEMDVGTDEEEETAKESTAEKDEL

T1 sequence (P41148 whole entry, the tested form may be a part): as the sequence (P41148 whole entry) above

- IC50 [1]: 210 nM
SMILES: NC(=O)c1cc(C#CC2CCCCC2)ccc1N[C@H]1CC[C@H](O)CC1

- Kd [2]: 8200 nM
SMILES: CCOc1ccccc1Cn1ccnc1CCc1c(Cl)c(O)cc(O)c1C(=O)OC

- IC50 [1]: 62600 nM
SMILES: CN(C)CC#Cc1ccc(N[C@H]2CC[C@H](O)CC2)c(C(N)=O)c1

- IC50 [1]: 325 nM
SMILES: CC(C)(C)C#Cc1ccc(N[C@H]2CC[C@H](O)CC2)c(C(N)=O)c1

- IC50 [1]: 234 nM
SMILES: CCCCC#Cc1ccc(NC2CCOCC2)c(C(N)=O)c1

- IC50 [1]: 393 nM
SMILES: CCCCC#Cc1ccc(NCC2CCOCC2)c(C(N)=O)c1

- IC50 [1]: 2020 nM
SMILES: CCCCC#Cc1ccc(NCCNC(C)=O)c(C(N)=O)c1

- IC50 [1]: 13 nM
SMILES: CC(C)c1cc(C(=O)N2Cc3ccc(CN4CCN(C)CC4)cc3C2)c(O)cc1O [ONALESPIB]

- IC50 [1]: 985 nM
SMILES: CCCCC#Cc1ccc(NC2CCN(C(=O)CCN3CCOCC3)CC2)c(C(N)=O)c1

- IC50 [1]: 16600 nM
SMILES: CCCCC#Cc1ccc(NCC2CCNCC2)c(C(N)=O)c1

- IC50 [1]: 310 nM
SMILES: CCCCC#Cc1ccc(NC2CCOC2)c(C(N)=O)c1 (stereo not drawn)

- IC50 [1]: 797 nM
SMILES: CCCCC#Cc1ccc(NC2CCN(C(=O)CC3CC3)CC2)c(C(N)=O)c1

- IC50 [1]: 519 nM
SMILES: CC(C)CCC#Cc1ccc(N[C@H]2CC[C@H](O)CC2)c(C(N)=O)c1

- IC50 [1]: 1490 nM
SMILES: CCCCC#Cc1ccc(NC2CCN(C(=O)CN3CCOCC3)CC2)c(C(N)=O)c1

- IC50 [1]: 6840 nM
SMILES: CCCCC#Cc1ccc(NCCO)c(C(N)=O)c1

- IC50 [1]: 528 nM
SMILES: CCCCC#Cc1ccc(NC2CCN(C(=O)C3CC3)CC2)c(C(N)=O)c1

- IC50 [1]: 251 nM
SMILES: NC(=O)c1cc(C#CC2CC2)ccc1N[C@H]1CC[C@H](O)CC1

- IC50 [1]: 2060 nM
SMILES: CCCCC#Cc1ccc(NCCCOC)c(C(N)=O)c1

- IC50 [1]: 4780 nM
SMILES: CCCCC#Cc1ccc(NCC2CCN(C(C)=O)CC2)c(C(N)=O)c1

SMILES: CCCCC#Cc1ccc(N[C@H]2CC[C@H](O)CC2)c(C(N)=O)c1
- IC50 [1]: 60 nM
- Ka [3]: 2.56 10^5/M/s
- Ka [4]: 1.22 10^5/M/s
- Papp [5]: 97.9 ×10⁻⁶ cm/s
- half-life at 10 µM [6]: 1.8 h
- logD [7]: 3.69
- solubility [8]: 11 µg/mL (≈ 35 µM)
- bioavailability [9]: 15.7%
- Activity_index [10]: 3.04
- Activity_index [11]: 1.76
- CL [12]: 12.8 µL/min/mg
- Vz [13]: 1.47 L/kg
- CL [14]: 111 mL/min/kg
- koff [15]: 1.14 10^-2/s
- koff [16]: 2.84 10^-2/s
- Activity [17]: Non-Toxic
- Cmax [18]: 600 ng/mL
- t1/2 [19]: 15.25 h
- half-life at 10 µM [20]: 5.78 h
- Vz [21]: 2.81 L/kg
- AUC [22]: 1.51 µg/mL/h
- CL [23]: 72.8 mL/min/kg
- AUC [24]: 0.95 µg/mL/h
- Cmax [25]: 2410 ng/mL
- CL [26]: 11 µL/min/mg
- Tmax [27]: 0.38 h
- t1/2 [28]: 4.69 h
- Tmax [29]: 3 min
- Activity_index [30]: 2.3
- Activity [31]: Non-Toxic

- IC50 [1]: > 100000 nM
SMILES: CCN(CC)CC#Cc1ccc(N[C@H]2CC[C@H](O)CC2)c(C(N)=O)c1

- IC50 [1]: 20 nM
- Papp [5]: 99.2 ×10⁻⁶ cm/s
- half-life at 10 µM [6]: 1.04 h
- logD [7]: 4.59
- solubility [8]: 3.9 µg/mL (≈ 11.1 µM)
- CL [12]: 25.5 µL/min/mg
- half-life at 10 µM [20]: 4.28 h
- CL [26]: 13.5 µL/min/mg
SMILES: CC(C)c1ccc(-c2ccc(N[C@H]3CC[C@H](O)CC3)c(C(N)=O)c2)cc1

- Kd [2]: > 250000 nM
- Kd [32]: 220 nM
SMILES: CC(C)NCCCn1c(Sc2cc(Cl)cc(Cl)c2)nc2c(N)ncnc21

- IC50 [1]: 627 nM
SMILES: CCCCC#Cc1ccc(NC2CCCNC2)c(C(N)=O)c1 (stereo not drawn)

- IC50 [1]: 2410 nM
SMILES: CCCCC#Cc1ccc(NCC2CCN(C(=O)C3CC3)CC2)c(C(N)=O)c1

- IC50 [1]: 100 nM
SMILES: NC(=O)c1cc(C#CC2CCCC2)ccc1N[C@H]1CC[C@H](O)CC1

- IC50 [1]: 3310 nM
SMILES: CCCCC#Cc1ccc(NCCCOCC)c(C(N)=O)c1

- IC50 [1]: 7540 nM
SMILES: CCCCC#Cc1ccc(NCCOCC)c(C(N)=O)c1

- IC50 [1]: 2770 nM
SMILES: CCCCC#Cc1ccc(NCCCO)c(C(N)=O)c1

- IC50 [1]: 203 nM
- Papp [5]: 94.6 ×10⁻⁶ cm/s
- logD [7]: 3.24
- solubility [8]: 16 µg/mL (≈ 46.9 µM)
SMILES: CCCCC#Cc1ccc(NC2CCN(C(C)=O)CC2)c(C(N)=O)c1

- IC50 [1]: 914 nM
SMILES: CC(C)C#Cc1ccc(N[C@H]2CC[C@H](O)CC2)c(C(N)=O)c1

- IC50 [1]: 313 nM
SMILES: CC(C)CC#Cc1ccc(N[C@H]2CC[C@H](O)CC2)c(C(N)=O)c1

- IC50 [1]: 947 nM
SMILES: CCCCC#Cc1ccc(NCC2CCOC2)c(C(N)=O)c1 (stereo not drawn)

- IC50 [1]: 205 nM
SMILES: NC(=O)c1cc(C#CCCCCl)ccc1N[C@H]1CC[C@H](O)CC1

- IC50 [1]: 1110 nM
SMILES: CCCCC#Cc1ccc(NC2CCN(C(=O)CN(C)C)CC2)c(C(N)=O)c1

- IC50 [1]: 1610 nM
SMILES: CCCCC#Cc1ccc(NC2CCNCC2)c(C(N)=O)c1

- IC50 [1]: 10900 nM
SMILES: CCCCC#Cc1ccc(NCCOC)c(C(N)=O)c1

- IC50 [1]: 2040 nM
SMILES: CCCCC#Cc1ccc(NC2CCCN(C(C)=O)C2)c(C(N)=O)c1 (stereo not drawn)

— ChEMBL document CHEMBL5055629, “Design and synthesis of Grp94 selective inhibitors based on Phe199 induced fit mechanism and their anti-inflammatory effects” (Eur J Med Chem, 2021)
